Laboratory results reported in the supplement of paper PMC4862054.

What was measured:
Conditions in all cases: incubation time: 72 h
BT-474 [1] = assay: normalised response (% of control), CellTox Green; higher = less cell death (100 = DMSO, 0 = benzethonium chloride kill control)
In short: (§1)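 For each plate, 0.1 % DMSO was set to 100 and a positive kill control to 0. Breast cancer cell lines (20 µl suspension) were seeded into 384-well plates already holding compound at 5 concentrations in 10-fold steps over a 10,000-fold range chosen per compound, and incubated for 72 h. CellTox Green fluorescence at 485/520 nm was read before CellTiter-Glo luminescence, which followed 10 min at room temperature. Each value is the normalised signal at one concentration.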

BT-549 [2] = assay: as above
In short: as §1

CAL-120 [3] = assay: as above
In short: as §1

CAL-148 [4] = assay: as above
In short: as §1

CAL-51 [5] = assay: as above
In short: as §1

CAL-85-1 [6] = assay: as above
In short: as §1

DU-4475 [7] = assay: as above
In short: as §1

HCC1143 [8] = assay: as above
In short: as §1

HCC1599 [9] = assay: as above
In short: as §1

HCC1937 [10] = assay: as above
In short: as §1

HDQ-P1 [11] = assay: as above
In short: as §1

Hs578T [12] = assay: as above
In short: as §1

MCF-10A [13] = assay: as above
In short: as §1

MDA-MB-231 [14] = assay: as above
In short: as §1

MDA-MB-436 [15] = assay: as above
In short: as §1

MDA-MB-453 [16] = assay: as above
In short: as §1

MDA-MB-468 [17] = assay: as above
In short: as §1

MFM-223 [18] = assay: as above
In short: as §1

BT-474 [19] = assay: normalised response (% of control), CellTiter-Glo; higher = more viable cells (100 = DMSO, 0 = benzethonium chloride kill control)
In short: as §1

BT-549 [20] = assay: as above
In short: as §1

CAL-120 [21] = assay: as above
In short: as §1

CAL-148 [22] = assay: as above
In short: as §1

CAL-51 [23] = assay: as above
In short: as §1

CAL-85-1 [24] = assay: as above
In short: as §1

DU-4475 [25] = assay: as above
In short: as §1

HCC1143 [26] = assay: as above
In short: as §1

HCC1599 [27] = assay: as above
In short: as §1

HCC1937 [28] = assay: as above
In short: as §1

HDQ-P1 [29] = assay: as above
In short: as §1

Hs578T [30] = assay: as above
In short: as §1

MCF-10A [31] = assay: as above
In short: as §1

MDA-MB-231 [32] = assay: as above
In short: as §1

MDA-MB-436 [33] = assay: as above
In short: as §1

MDA-MB-453 [34] = assay: as above
In short: as §1

MDA-MB-468 [35] = assay: as above
In short: as §1

MFM-223 [36] = assay: as above
In short: as §1

SK-BR-3 [37] = assay: as above
In short: as §1

BT-474 [38] = assay: normalised response (% of control), CellTiter-Glo; higher = more viable cells (100 = DMSO, 0 = benzethonium chloride kill control); remark: listed apart in the source
Protocol: (§2)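 DSRT, 72 h incubation, CellTox Green / CellTiter-Glo readout. Signal is normalised to DMSO and benzethonium chloride controls. Value is the normalised response at dose 3.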

BT-549 [39] = assay: as above; remark: listed apart in the source
Protocol: as §2

CAL-120 [40] = assay: as above; remark: listed apart in the source
Protocol: as §2

CAL-148 [41] = assay: as above; remark: listed apart in the source
Protocol: as §2

CAL-51 [42] = assay: as above; remark: listed apart in the source
Protocol: as §2

CAL-85-1 [43] = assay: as above; remark: listed apart in the source
Protocol: as §2

DU-4475 [44] = assay: as above; remark: listed apart in the source
Protocol: as §2

HCC1143 [45] = assay: as above; remark: listed apart in the source
Protocol: as §2

HCC1599 [46] = assay: as above; remark: listed apart in the source
Protocol: as §2

HCC1937 [47] = assay: as above; remark: listed apart in the source
Protocol: as §2

HDQ-P1 [48] = assay: as above; remark: listed apart in the source
Protocol: as §2

Hs578T [49] = assay: as above; remark: listed apart in the source
Protocol: as §2

MCF-10A [50] = assay: as above; remark: listed apart in the source
Protocol: as §2

MDA-MB-231 [51] = assay: as above; remark: listed apart in the source
Protocol: as §2

MDA-MB-436 [52] = assay: as above; remark: listed apart in the source
Protocol: as §2

MDA-MB-453 [53] = assay: as above; remark: listed apart in the source
Protocol: as §2

MDA-MB-468 [54] = assay: as above; remark: listed apart in the source
Protocol: as §2

MFM-223 [55] = assay: as above; remark: listed apart in the source
Protocol: as §2

SK-BR-3 [56] = assay: as above; remark: listed apart in the source
Protocol: as §2

Compound | normalised response (BT-474 [1]) [%] | normalised response (BT-549 [2]) [%] | normalised response (CAL-120 [3]) [%] | normalised response (CAL-148 [4]) [%] | normalised response (CAL-51 [5]) [%] | normalised response (CAL-85-1 [6]) [%] | normalised response (DU-4475 [7]) [%] | normalised response (HCC1143 [8]) [%] | normalised response (HCC1599 [9]) [%] | normalised response (HCC1937 [10]) [%] | normalised response (HDQ-P1 [11]) [%] | normalised response (Hs578T [12]) [%] | normalised response (MCF-10A [13]) [%] | normalised response (MDA-MB-231 [14]) [%] | normalised response (MDA-MB-436 [15]) [%] | normalised response (MDA-MB-453 [16]) [%] | normalised response (MDA-MB-468 [17]) [%] | normalised response (MFM-223 [18]) [%] | normalised response (BT-474 [19]) [%] | normalised response (BT-549 [20]) [%] | also measured
CS(=O)(=O)c1ccc(C2=C(c3ccccc3)C(=O)OC2)cc1 [Rofecoxib] (1000 nM) | 102 | 98.2 | 101 | 105 | 99.8 | 112 | 112 | 116 | 100 | 96 | 82 | 108 | 118 | 112 | 99.2 | 108 | 127 | 103 | 101 | 95.4 | normalised response (CAL-120 [21]): 103%; normalised response (CAL-148 [22]): 102%; normalised response (CAL-51 [23]): 104%; normalised response (CAL-85-1 [24]): 103%; normalised response (DU-4475 [25]): 98.8%; normalised response (HCC1143 [26]): 103%; normalised response (HCC1599 [27]): 118%; normalised response (HCC1937 [28]): 97%; normalised response (HDQ-P1 [29]): 100%; normalised response (Hs578T [30]): 112%; normalised response (MCF-10A [31]): 122%; normalised response (MDA-MB-231 [32]): 107%; normalised response (MDA-MB-436 [33]): 105%; normalised response (MDA-MB-453 [34]): 97%; normalised response (MDA-MB-468 [35]): 103%; normalised response (MFM-223 [36]): 104%; normalised response (SK-BR-3 [37]): 116%
CNCc1ccc(-c2[nH]c3cc(F)cc4c3c2CCNC4=O)cc1 [Rucaparib] (100 nM) | 95.5 | 71.6 | 98.9 | 97.4 | 91.6 | 97.5 | 95.7 | 104 | 94.4 |  | 104 | 108 |  | 87 | 83.3 | 102 |  | 73.3 |  |  | normalised response (BT-474 [38]): 93%; normalised response (BT-549 [39]): 106%; normalised response (CAL-120 [40]): 92.8%; normalised response (CAL-148 [41]): 86%; normalised response (CAL-51 [42]): 84.1%; normalised response (CAL-85-1 [43]): 99.1%; normalised response (DU-4475 [44]): 97.2%; normalised response (HCC1143 [45]): 99.3%; normalised response (HCC1599 [46]): 109%; normalised response (HCC1937 [47]): 99.2%; normalised response (HDQ-P1 [48]): 98.3%; normalised response (Hs578T [49]): 99.8%; normalised response (MCF-10A [50]): 93.6%; normalised response (MDA-MB-231 [51]): 99.2%; normalised response (MDA-MB-436 [52]): 90.6%; normalised response (MDA-MB-453 [53]): 91.3%; normalised response (MDA-MB-468 [54]): 104%; normalised response (MFM-223 [55]): 88.8%; normalised response (SK-BR-3 [56]): 90%
CC(C)Cn1cnc2c(N)nc3ccccc3c21 [Imiquimod] (250 nM) | 88.2 | 98.3 | 99.5 | 76.8 | 94.4 | 89.3 | 101 | 99.4 | 97.7 | 112 | 104 | 54.6 | 109 | 102 | 107 | 103 | 119 | 92.9 | 110 | 105 | normalised response (CAL-120 [21]): 95%; normalised response (CAL-148 [22]): 98%; normalised response (CAL-51 [23]): 99%; normalised response (CAL-85-1 [24]): 97.5%; normalised response (DU-4475 [25]): 103%; normalised response (HCC1143 [26]): 101%; normalised response (HCC1599 [27]): 104%; normalised response (HCC1937 [28]): 93%; normalised response (HDQ-P1 [29]): 97.7%; normalised response (Hs578T [30]): 98.7%; normalised response (MCF-10A [31]): 104%; normalised response (MDA-MB-231 [32]): 105%; normalised response (MDA-MB-436 [33]): 101%; normalised response (MDA-MB-453 [34]): 107%; normalised response (MDA-MB-468 [35]): 97%; normalised response (MFM-223 [36]): 101%; normalised response (SK-BR-3 [37]): 105%
COc1cc2ncnc(Nc3ccc(F)c(Cl)c3)c2cc1NC(=O)/C=C/CN1CCCCC1 [Dacomitinib] (100 nM) | 70.4 | 98.9 | 96.7 | 97.8 | 78.7 | 80.4 | 99.5 | 102 | 99.1 | 92.7 | 89.4 | 101 | 94.3 | 109 | 96.8 | 87.4 | 74.8 | 100 | 94 | 95.4 | normalised response (CAL-120 [21]): 99.7%; normalised response (CAL-148 [22]): 82%; normalised response (CAL-51 [23]): 112%; normalised response (CAL-85-1 [24]): 61%; normalised response (DU-4475 [25]): 96.2%; normalised response (HCC1143 [26]): 94.9%; normalised response (HCC1599 [27]): 110%; normalised response (HCC1937 [28]): 93.3%; normalised response (HDQ-P1 [29]): 68.6%; normalised response (Hs578T [30]): 101%; normalised response (MCF-10A [31]): 38.9%; normalised response (MDA-MB-231 [32]): 97.5%; normalised response (MDA-MB-436 [33]): 92.1%; normalised response (MDA-MB-453 [34]): 72.7%; normalised response (MDA-MB-468 [35]): 87.1%; normalised response (MFM-223 [36]): 105%; normalised response (SK-BR-3 [37]): 36.1%
O=C(CCCCCCC(=O)Nc1ccc([C@H]2O[C@@H](CSc3nc(-c4ccccc4)c(-c4ccccc4)o3)C[C@@H](c3ccc(CO)cc3)O2)cc1)NO [Tubacin] (1000 nM) | 95.5 | 114 | 100 | 99.9 | 93.4 | 102 | 101 | 105 | 97.9 | 55.1 | 72.7 | 93.4 | 113 | 88.2 | 90.3 | 103 | -536 | 86.1 | 91.3 | 89.3 | normalised response (CAL-120 [21]): 88.6%; normalised response (CAL-148 [22]): 95.4%; normalised response (CAL-51 [23]): 77.8%; normalised response (CAL-85-1 [24]): 72.2%; normalised response (DU-4475 [25]): 91.9%; normalised response (HCC1143 [26]): 90.2%; normalised response (HCC1599 [27]): 93.2%; normalised response (HCC1937 [28]): 82.6%; normalised response (HDQ-P1 [29]): 88.2%; normalised response (Hs578T [30]): 95.3%; normalised response (MCF-10A [31]): 105%; normalised response (MDA-MB-231 [32]): 81.4%; normalised response (MDA-MB-436 [33]): 94.8%; normalised response (MDA-MB-453 [34]): 70.3%; normalised response (MDA-MB-468 [35]): 61.7%; normalised response (MFM-223 [36]): 78.3%; normalised response (SK-BR-3 [37]): 95.3%
